In PubChem BioAssay AID328 (DTP/NCI, 2004):
Values joined by “and” are separate entries in the source; they are usually repeats but may differ in a detail not shown here. Equal values may be shown once. Inconclusive results and toxic doses are left out.

Tested on: BDF1 mice, P388 leukemia ip, median survival T/C
Test: NCI In Vivo Anticancer Drug Screen. Data for tumor model P388 Leukemia (intraperitoneal) in B6D2F1 (BDF1) mice
Settings: endpoint: median survival time, higher = longer survival
Outline: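 Each value expresses how treatment altered survival: treated-mouse outcome over vehicle-mouse outcome, both groups bearing the transplanted tumour.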

[1] = dose: 100.0 mg/kg/injection, schedule: Q01DX009 (ip), vehicle: saline with Tween-80
[2] = dose: 200.0 mg/kg/injection, schedule: Q01DX009 (ip), vehicle: saline with Tween-80
[3] = dose: 400.0 mg/kg/injection, schedule: Q01DX009 (ip), vehicle: saline with Tween-80
[4] = dose: 100.0 mg/kg/injection, schedule: Q04DX003 (ip), vehicle: saline with Tween-80
[5] = dose: 200.0 mg/kg/injection, schedule: Q04DX003 (ip), vehicle: saline with Tween-80
[6] = dose: 400.0 mg/kg/injection, schedule: Q04DX003 (ip), vehicle: saline with Tween-80
[7] = dose: 100.0 mg/kg/injection, schedule: Q01DX009 (ip), vehicle: Klucel (hydroxypropylcellulose) (HPC)
[8] = dose: 100.0 mg/kg/injection, schedule: Q04DX003 (ip), vehicle: Klucel (hydroxypropylcellulose) (HPC)
[9] = dose: 200.0 mg/kg/injection, schedule: Q01DX009 (ip), vehicle: Klucel (hydroxypropylcellulose) (HPC)
[10] = dose: 200.0 mg/kg/injection, schedule: Q04DX003 (ip), vehicle: Klucel (hydroxypropylcellulose) (HPC)
[11] = dose: 400.0 mg/kg/injection, schedule: Q01DX009 (ip), vehicle: Klucel (hydroxypropylcellulose) (HPC)
[12] = dose: 400.0 mg/kg/injection, schedule: Q04DX003 (ip), vehicle: Klucel (hydroxypropylcellulose) (HPC)
[13] = dose: 100.0 mg/kg/injection, schedule: Q04DX003 (ip), vehicle: saline
[14] = dose: 200.0 mg/kg/injection, schedule: Q04DX003 (ip), vehicle: saline
[15] = dose: 400.0 mg/kg/injection, schedule: Q04DX003 (ip), vehicle: saline
[16] = dose: 6.25 mg/kg/injection, schedule: Q01DX009 (ip), vehicle: saline
[17] = dose: 12.5 mg/kg/injection, schedule: Q01DX009 (ip), vehicle: saline
[18] = dose: 25.0 mg/kg/injection, schedule: Q01DX009 (ip), vehicle: saline

CCC1=CCN2CCC34c5cc(C6(C(=O)OC)CC7CC(CC)CN(CCc8c6[nH]c6ccccc86)C7)c(OC)cc5N(C)C3C(O)(C(=O)OC)C(OC(C)=O)C1C24 (configuration not stated)
T/C (dose: 0.03 mg/kg/injection, schedule: Q01DX010 (ip), vehicle: saline): 100 % of control | T/C (dose: 0.06 mg/kg/injection, schedule: Q01DX010 (ip), vehicle: saline): 104 % of control | T/C (dose: 0.13 mg/kg/injection, schedule: Q01DX010 (ip), vehicle: saline): 95 % of control | T/C (dose: 0.25 mg/kg/injection, schedule: Q01DX010 (ip), vehicle: saline): 100 % of control | T/C (dose: 0.5 mg/kg/injection, schedule: Q01DX010 (ip), vehicle: saline): 86 % of control

COc1cccc2c1C(=O)c1c(O)c3c(c(O)c1C2=O)C[C@@](O)(C(=O)CO)C[C@@H]3OC1CC(NC(=O)CN)C(O)C(C)O1 (some centres not stated)
T/C (dose: 1.56 mg/kg/injection, schedule: Q01DX009 (ip), vehicle: other): 108 % of control | T/C (dose: 3.13 mg/kg/injection, schedule: Q01DX009 (ip), vehicle: other): 110 % of control | T/C (dose: 6.25 mg/kg/injection, schedule: Q01DX009 (ip), vehicle: other): 105 % of control | T/C (dose: 12.5 mg/kg/injection, schedule: Q01DX009 (ip), vehicle: other): 99 % of control | T/C (dose: 25.0 mg/kg/injection, schedule: Q01DX009 (ip), vehicle: other): 114 % of control

c1cc(OCC2CO2)ccc1OCC1CO1 (configuration not stated)
T/C (dose: 78.0 mg/kg/injection, schedule: Q04DX003 (ip), vehicle: saline with Tween-80): 119 % of control | T/C (dose: 177.0 mg/kg/injection, schedule: Q04DX003 (ip), vehicle: saline with Tween-80): 153 % of control | T/C (dose: 600.0 mg/kg/injection, schedule: Q04DX003 (ip), vehicle: saline with Tween-80): 122 % of control

Cc1ccc2c(c1)C(c1ccccc1)(c1ccccc1)OC2=O
T/C [1]: 100 % of control | T/C [2]: 90 % of control | T/C [3]: 100 % of control

O=NN(CCCl)C(=O)NC12CC3CC(CC(C3)C1)C2
T/C (dose: 5.0 mg/kg/injection, schedule: Q04DX003 (ip), vehicle: Klucel (hydroxypropylcellulose) (HPC)): 100 % of control | T/C (dose: 15.0 mg/kg/injection, schedule: Q04DX003 (ip), vehicle: Klucel (hydroxypropylcellulose) (HPC)): 95 % of control | T/C (dose: 30.0 mg/kg/injection, schedule: Q04DX003 (ip), vehicle: Klucel (hydroxypropylcellulose) (HPC)): 104 % of control | T/C (dose: 37.5 mg/kg/injection, schedule: Q04DX003 (ip), vehicle: Klucel (hydroxypropylcellulose) (HPC)): 166 % of control | T/C (dose: 75.0 mg/kg/injection, schedule: Q04DX003 (ip), vehicle: Klucel (hydroxypropylcellulose) (HPC)): 250 % of control | T/C [4]: 285 % of control | T/C (dose: 150.0 mg/kg/injection, schedule: Q04DX003 (ip), vehicle: Klucel (hydroxypropylcellulose) (HPC)): 250 % of control | T/C (dose: 175.0 mg/kg/injection, schedule: Q04DX003 (ip), vehicle: saline): 103 % of control | T/C [5]: 285 % of control | T/C [6]: 285 % of control

CC=C=C(C)CN
T/C (dose: 50.0 mg/kg/injection, schedule: Q01DX009 (ip), vehicle: saline): 96 % of control | T/C (dose: 100.0 mg/kg/injection, schedule: Q01DX009 (ip), vehicle: saline): 96 % of control | T/C (dose: 200.0 mg/kg/injection, schedule: Q01DX009 (ip), vehicle: saline): 92 % of control

C=CC(C)(O)CCC1C(=C)CCC2C(C)(C)CCCC12C (configuration not stated)
T/C [7]: 90 % of control | T/C [8]: 95 % of control | T/C [9]: 86 % of control | T/C [10]: 100 % of control | T/C [11]: 95 % of control | T/C [12]: 95 % of control

CC#CCOCC1CN(c2ccccc2)C(=O)O1 (configuration not stated)
T/C [13]: 92 % of control | T/C [2]: 100 % of control | T/C [14]: 92 % of control | T/C [3]: 100 % of control | T/C [15]: 100 % of control

CCOC(=O)c1cc2nc3ccccn3c(=O)c2cc1N
T/C [1]: 100 % of control | T/C [2]: 91 % of control

S=C(NNc1ccccc1)NC1CCCCC1
T/C (dose: 100.0 mg/kg/injection, schedule: Q01DX001 (ip), vehicle: Klucel (hydroxypropylcellulose) (HPC)): 100 % of control | T/C [7]: 86 % of control | T/C [8]: 110 % of control | T/C (dose: 200.0 mg/kg/injection, schedule: Q01DX001 (ip), vehicle: Klucel (hydroxypropylcellulose) (HPC)): 100 % of control | T/C [9]: 90 % of control | T/C [10]: 105 % of control | T/C (dose: 400.0 mg/kg/injection, schedule: Q01DX001 (ip), vehicle: Klucel (hydroxypropylcellulose) (HPC)): 104 % of control | T/C [11]: 100 % of control | T/C [12]: 110 % of control

C[N+]1=C2CCCCCC2=C(N)CC1
T/C [16]: 100 % of control | T/C [17]: 100 % of control | T/C (dose: 12.5 mg/kg/injection, schedule: Q04DX003 (ip), vehicle: saline sonified): 91 % of control | T/C [18]: 100 % of control

CCSCCSCC
T/C [1]: 107 % of control | T/C [13]: 120 % of control | T/C [2]: 103 % of control | T/C [14]: 115 % of control | T/C [15]: 120 % of control

CN(C)c1ccc(C=C(C#N)C#N)cc1
T/C [8]: 100 % of control | T/C [9]: 90 % of control | T/C [10]: 100 % of control | T/C [11]: 113 % of control | T/C [12]: 90 % of control

CC/C(=C(\CC)c1ccc(OC)cc1)c1ccc(O)cc1
T/C (dose: 100.0 mg/kg/injection, schedule: Q01DX009 (ip), vehicle: saline sonified): 105 % of control | T/C [4]: 109 % of control | T/C (dose: 200.0 mg/kg/injection, schedule: Q01DX009 (ip), vehicle: saline sonified): 110 % of control | T/C [5]: 104 % of control | T/C (dose: 400.0 mg/kg/injection, schedule: Q01DX009 (ip), vehicle: saline sonified): 115 % of control | T/C [6]: 95 % of control

CC(=O)N(C)c1ccc(/C=C2\C=Cc3ccccc32)cc1
T/C [1]: 100 % of control | T/C [4]: 90 % of control | T/C [2]: 95 % of control | T/C [5]: 100 % of control

CN1CCC(CN2c3ccccc3Sc3ccccc32)CC1
T/C (dose: 1.56 mg/kg/injection, schedule: Q01DX009 (ip), vehicle: Klucel (hydroxypropylcellulose) (HPC)): 105 % of control | T/C (dose: 3.12 mg/kg/injection, schedule: Q01DX009 (ip), vehicle: Klucel (hydroxypropylcellulose) (HPC)): 86 % of control and 105 % of control | T/C (dose: 6.25 mg/kg/injection, schedule: Q01DX009 (ip), vehicle: Klucel (hydroxypropylcellulose) (HPC)): 95 % of control | T/C (dose: 8.75 mg/kg/injection, schedule: Q04DX003 (ip), vehicle: Klucel (hydroxypropylcellulose) (HPC)): 95 % of control | T/C (dose: 17.5 mg/kg/injection, schedule: Q04DX003 (ip), vehicle: Klucel (hydroxypropylcellulose) (HPC)): 95 % of control | T/C (dose: 35.0 mg/kg/injection, schedule: Q04DX003 (ip), vehicle: Klucel (hydroxypropylcellulose) (HPC)): 109 % of control | T/C (dose: 50.0 mg/kg/injection, schedule: Q04DX003 (ip), vehicle: Klucel (hydroxypropylcellulose) (HPC)): 110 % of control | T/C (dose: 80.0 mg/kg/injection, schedule: Q04DX003 (ip), vehicle: Klucel (hydroxypropylcellulose) (HPC)): 120 % of control | T/C [4]: 118 % of control | T/C [5]: 86 % of control

CN(/N=N/N(C)c1ccccc1)c1ccccc1
T/C (dose: 100.0 mg/kg/injection, schedule: Q04DX003 (ip), vehicle: saline sonified): 110 % of control | T/C [2]: 120 % of control | T/C (dose: 200.0 mg/kg/injection, schedule: Q04DX003 (ip), vehicle: saline sonified): 110 % of control | T/C [3]: 110 % of control | T/C (dose: 400.0 mg/kg/injection, schedule: Q04DX003 (ip), vehicle: saline sonified): 100 % of control

O=S1(=O)CC2(N3CCOCC3)C3CCC(C3)C21 (configuration not stated)
T/C [4]: 111 % of control | T/C [6]: 92 % of control

O=N[O-].[Co].[N-]=C=S.[NH2-].[NH2-].[NH2-].[NH2-]
T/C [16]: 95 % of control | T/C [17]: 93 % of control | T/C [18]: 112 % of control | T/C (dose: 50.0 mg/kg/injection, schedule: Q04DX003 (ip), vehicle: saline with Tween-80): 120 % of control

CC1C=CC(C(N)C(=O)O)O1 (configuration not stated)
T/C [13]: 100 % of control | T/C [14]: 100 % of control | T/C [15]: 95 % of control and 100 % of control

CCN1CC2(COC)C(O)CC(OC)C34C5CC6(O)C(OC)C=C(C5C6OC(=O)c5ccc(OC)c(OC)c5)C(C(OC)C23)C14 (configuration not stated)
T/C (dose: 0.19 mg/kg/injection, schedule: Q01DX009 (ip), vehicle: saline with Tween-80): 120 % of control | T/C (dose: 0.38 mg/kg/injection, schedule: Q01DX009 (ip), vehicle: saline with Tween-80): 94 % of control | T/C (dose: 0.75 mg/kg/injection, schedule: Q01DX009 (ip), vehicle: saline with Tween-80): 90 % of control
